From BindingDB's records for doi:10.1124/jpet.105.099705 (Meiji Seika Kaisha, 2006) come the findings set out here.

Assay [1] concerns the target T1, Neuropeptide Y receptor type 2 (Homo sapiens, UniProt P49146).
T1 sequence (P49146 whole entry): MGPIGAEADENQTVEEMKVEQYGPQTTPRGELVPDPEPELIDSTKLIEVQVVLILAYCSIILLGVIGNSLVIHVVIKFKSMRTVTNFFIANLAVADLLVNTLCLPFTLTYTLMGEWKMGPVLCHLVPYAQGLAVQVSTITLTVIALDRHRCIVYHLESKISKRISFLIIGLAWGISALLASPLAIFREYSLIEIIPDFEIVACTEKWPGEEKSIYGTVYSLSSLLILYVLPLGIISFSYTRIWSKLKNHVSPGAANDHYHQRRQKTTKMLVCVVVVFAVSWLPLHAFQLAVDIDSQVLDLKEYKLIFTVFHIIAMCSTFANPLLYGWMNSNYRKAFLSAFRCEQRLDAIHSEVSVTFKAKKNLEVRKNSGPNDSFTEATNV

The target in assay [2] is T2, Neuropeptide Y receptor type 5 (Homo sapiens, UniProt Q15761).
T2 sequence (Q15761 whole entry): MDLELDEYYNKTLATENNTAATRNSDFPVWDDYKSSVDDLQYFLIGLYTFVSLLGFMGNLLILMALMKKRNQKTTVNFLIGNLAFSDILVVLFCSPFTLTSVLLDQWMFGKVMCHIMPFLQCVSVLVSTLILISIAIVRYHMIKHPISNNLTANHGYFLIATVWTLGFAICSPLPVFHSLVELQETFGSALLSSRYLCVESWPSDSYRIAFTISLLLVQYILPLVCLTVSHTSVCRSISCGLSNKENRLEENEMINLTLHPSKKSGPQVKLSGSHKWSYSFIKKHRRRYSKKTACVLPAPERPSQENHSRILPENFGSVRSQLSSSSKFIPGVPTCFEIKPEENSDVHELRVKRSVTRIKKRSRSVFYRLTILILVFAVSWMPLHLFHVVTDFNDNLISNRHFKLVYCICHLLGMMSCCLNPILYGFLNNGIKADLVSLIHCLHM

Assay [3] has as its target T3, Neuropeptide Y receptor type 1 (Homo sapiens, UniProt P25929).
T3 sequence (P25929 whole entry): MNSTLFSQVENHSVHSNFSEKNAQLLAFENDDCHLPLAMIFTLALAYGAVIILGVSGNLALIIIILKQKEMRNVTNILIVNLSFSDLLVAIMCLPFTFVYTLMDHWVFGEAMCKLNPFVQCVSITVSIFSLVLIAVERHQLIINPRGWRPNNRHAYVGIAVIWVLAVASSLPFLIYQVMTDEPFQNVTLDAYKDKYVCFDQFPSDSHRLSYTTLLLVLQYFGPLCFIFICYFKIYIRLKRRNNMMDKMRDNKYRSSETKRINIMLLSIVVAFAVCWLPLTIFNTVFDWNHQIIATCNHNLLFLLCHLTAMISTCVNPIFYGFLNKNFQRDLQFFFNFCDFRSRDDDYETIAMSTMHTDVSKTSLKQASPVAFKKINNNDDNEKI

Counter-ions that a name gives are not always drawn.

Turning to `CC(C)n1c2c(c3cc(NC(=O)N(C)CCc4ccncc4)ccc31)CCCC2` [3-(5,6,7,8-tetrahydro-9-isopropyl-carbazol-3-yl)-1-methyl-1-(2-pyridin-4-yl-ethyl)-ureanbsphydrochloride], the IC50 (as a rule, the concentration that inhibits the measured activity by half) is more than 10000 nM in assay [1] and 4.3 nM in assay [2].
On to `CC1(C)CC(=O)C(C2C3=C(CC(C)(C)CC3=O)Oc3ccccc32)C(=O)C1` (stereo not given) [CAS_6508-43-6], for which the 50% inhibitory concentration (IC50) in assay [1] is more than 10000 nM; in assay [2], 25 nM; in assay [3], more than 10000 nM.
